Reference: the supplement of paper PMC7840683
± gives the standard deviation of the averaged measurements.

System: HepaRG
Assay: LDH release cytotoxicity, % of total lysis control; higher = more cytotoxic
Details: 48 h
Method in brief: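 Duplicate wells of single-lot HepaRG cells, grown on collagen I-coated 96-well plates, received eight-point half-log series of test chemicals with 100 µM as the top concentration. Exposure lasted 48 h in serum-free induction medium with 0.5% DMSO, while total lysis wells received 0.1% Triton X. Resorufin fluorescence (CytoTox-ONE, Tecan Safire) was used to quantify LDH leaked into 50 µL of spent medium. Values for percent cytotoxicity were normalized to on-plate vehicle and total lysis controls and averaged across the duplicates.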

CC(C)=CCC/C(C)=C\CO [(2Z)-3,7-Dimethylocta-2,6-dien-1-ol]
Details | LDH release cytotoxicity [%]
0.03162 µM | -0.521 ± 1.3
0.1 µM | -0.112 ± 1.1
0.3162278 µM | 0.637 ± 0.11
1 µM | 0.207 ± 0.16
3.16228 µM | 0.25 ± 0.08
10 µM | 0.588 ± 0.27
31.6228 µM | 0.393 ± 0.26
100 µM | 1.1 ± 0.14

C/C=C/c1ccc(OC)cc1 [(E)-Anethole]
Details | LDH release cytotoxicity [%]
0.03162 µM | -0.814 ± 0.42
0.1 µM | -0.865 ± 0.97
0.3162278 µM | -1.3 ± 0.57
1 µM | -0.855 ± 0.66
3.16228 µM | -1.25 ± 0.25
10 µM | -0.44 ± 0.067
31.6228 µM | -0.316 ± 0.29
100 µM | 1.16 ± 1

O=C(N[C@H]1CN2CCC1CC2)c1cc2ccoc2cn1 [(R)-N-(Quinuclidin-3-yl)furo(2,3-C)pyridine-5-carboxamide]
Details | LDH release cytotoxicity [%]
0.03162 µM | -0.025 ± 0.11
0.1 µM | 1.01 ± 0.6
0.3162278 µM | 0.216 ± 0.84
1 µM | 0.437 ± 0.39
3.16228 µM | 1.24 ± 0.3
10 µM | 0.814 ± 0.5
31.6228 µM | 1.28 ± 0.19
100 µM | 1.77 ± 0.61

O=C(NC(=O)c1cc(F)c(F)cc1Cl)Nc1cc(F)ccc1N1CCC(C(=O)O)CC1 [AVE2865]
Details | LDH release cytotoxicity [%]
0.01581 µM | 0.296 ± 0.54
0.05 µM | -1.08 ± 0.4
0.1581139 µM | -1.31 ± 0.41
0.5 µM | -0.965 ± 0.11
1.5811388 µM | -1.15 ± 0.067
5 µM | -0.168 ± 0.023
15.8114 µM | 0.386 ± 0.34
50 µM | 0.68 ± 0.52

O=C(O)c1ccc2c(c1)nc(C(=O)NC1CCN(C3CC3)CC1)n2Cc1cc(-c2ccc(Cl)s2)on1 [AVE3247]
Details | LDH release cytotoxicity [%]
0.0075895 µM | -0.875 ± 0.16
0.024 µM | -2.04 ± 0.26
0.0758947 µM | -2.37 ± 0.35
0.24 µM | -2.63 ± 0.092
0.758947 µM | -2.23 ± 0.33
2.4 µM | -1.94 ± 0.17
7.58947 µM | -1.68 ± 0.43
24 µM | -0.941 ± 0.19

CCC(NC(=O)c1cc(F)ccc1NS(=O)(=O)c1cccc2cccnc12)c1ccccc1 (centres undefined) [AVE3295]
Details | LDH release cytotoxicity [%]
0.0301998 µM | -1.81 ± 0.3
0.0955 µM | -1.66 ± 1.1
0.301997 µM | -1.7 ± 0.59
0.955 µM | -1.55 ± 0.55
3.01998 µM | -1.75 ± 0.27
9.55 µM | -2.12 ± 0.47
30.199752 µM | -1.2 ± 0.89
95.5 µM | 4.69 ± 0.74

NCc1cccc(C2CCN(C(=O)c3ccc(C#Cc4ccccc4F)o3)CC2)c1 [AVE5638]
Details | LDH release cytotoxicity [%]
0.03162 µM | 0.161 ± 0.38
0.1 µM | 0.0623 ± 0.48
0.3162278 µM | 0.0711 ± 0.39
1 µM | 0.0437 ± 0.62
3.16228 µM | 0.441 ± 0.0046
10 µM | 0.359 ± 0.33
31.6228 µM | 3.69 ± 0.52
100 µM | 65.1 ± 7.6

CCOC(=O)OC(C)OC(=O)c1ccc2c(c1)cc(C(=O)NC1CCN(C(C)C)CC1)n2Cc1cc(-c2ccc(Cl)s2)on1 (centres undefined) [AVE6324]
Details | LDH release cytotoxicity [%]
0.02988 µM | -0.39 ± 1.6
0.0945 µM | -0.573 ± 0.22
0.298835 µM | -0.553 ± 1.2
0.945 µM | -1.09 ± 0.69
2.98835 µM | -0.186 ± 0.77
9.45 µM | 1.15 ± 0.64
29.8835 µM | 1.55 ± 1.8
94.5 µM | 48.4 ± 7.1

CN1CCN(Cc2cc(-c3ccc4nc(O)oc4c3)co2)C(c2ccc(F)cc2)C1 (centres undefined) [AVE8488]
Details | LDH release cytotoxicity [%]
0.03162 µM | -0.724 ± 0.27
0.1 µM | -1.47 ± 0.17
0.3162278 µM | -0.841 ± 0.31
1 µM | -0.702 ± 0.13
3.16228 µM | -1.52 ± 0.25
10 µM | -0.46 ± 0.076
31.6228 µM | 0.998 ± 0.15
100 µM | 9.54 ± 0.2

CCCOc1sc(C(=O)N2CCC(c3cc(CN)ccc3F)CC2)c(C)c1Br [AVE8923]
Details | LDH release cytotoxicity [%]
0.002846 µM | 0.846 ± 0.37
0.009 µM | -1.04 ± 0.12
0.02846 µM | -1.76 ± 0.7
0.09 µM | -1.75 ± 0.022
0.284605 µM | -1.48 ± 0.47
0.9 µM | -1.21 ± 0.12
2.84605 µM | -0.426 ± 0.15
9 µM | -0.0454 ± 0.26

O=C(O)c1ccccc1-n1cc(C(=O)O)c(=O)c2cc(Nc3c(F)cc(F)cc3Cl)c(Cl)cc21 [AVE9423]
Details | LDH release cytotoxicity [%]
0.03162 µM | -1.33 ± 0.48
0.1 µM | -1.38 ± 0.094
0.3162278 µM | -2.06 ± 0.7
1 µM | -2.38 ± 0.63
3.16228 µM | -2.31 ± 0.53
10 µM | -2.38 ± 0.67
31.6228 µM | -1.42 ± 1.4
100 µM | -1.52 ± 0.52

CC[C@H](C)[C@H]1O[C@]2(C=C[C@@H]1C)C[C@@H]1C[C@@H](C/C=C(\C)[C@@H](O[C@H]3C[C@H](OC)[C@@H](O[C@H]4C[C@H](OC)[C@@H](O)[C@H](C)O4)[C@H](C)O3)[C@@H](C)/C=C/C=C3\CO[C@@H]4[C@H](O)C(C)=C[C@@H](C(=O)O1)[C@]34O)O2.CO[C@H]1C[C@H](O[C@H]2[C@H](C)O[C@@H](O[C@@H]3/C(C)=C/C[C@@H]4C[C@@H](C[C@]5(C=C[C@H](C)[C@@H](C(C)C)O5)O4)OC(=O)[C@@H]4C=C(C)[C@@H](O)[C@H]5OC/C(=C\C=C\[C@@H]3C)[C@]54O)C[C@@H]2OC)O[C@@H](C)[C@@H]1O [Abamectin]
Details | LDH release cytotoxicity [%]
0.0191318 µM | -1.6 ± 0.53
0.0605 µM | -0.607 ± 0.021
0.191318 µM | -1.03 ± 0.44
0.605 µM | -0.868 ± 0.18
1.913178 µM | -1.21 ± 0.25
6.05 µM | -1.13 ± 0.81
19.1318 µM | 12.3 ± 1.8
60.5 µM | 63.56 ± 0.26

c1cc2c3c(cccc3c1)CC2 [Acenaphthene]
Details | LDH release cytotoxicity [%]
0.03162 µM | -0.325 ± 0.66
0.1 µM | -0.376 ± 0.039
0.3162278 µM | 0.475 ± 0.27
1 µM | -0.576 ± 0.93
3.16228 µM | -0.0334 ± 0.48
10 µM | 0.635 ± 0.44
31.6228 µM | 0.885 ± 1.1
100 µM | 1.86 ± 0.3

C1=Cc2cccc3cccc1c23 [Acenaphthylene]
Details | LDH release cytotoxicity [%]
0.031623 µM | -0.662 ± 0.2
0.1 µM | -2.98 ± 1.1
0.316228 µM | -2.7 ± 0.37
1 µM | -2.28 ± 0.87
3.16228 µM | -2.7 ± 0.39
10 µM | -2.757 ± 0.027
31.6228 µM | -1.56 ± 0.24
100 µM | 1 ± 0.85

COP(=O)(NC(C)=O)SC (centres undefined) [Acephate]
Details | LDH release cytotoxicity [%]
0.03162 µM | -0.866 ± 0.12
0.1 µM | -0.804 ± 0.21
0.3162278 µM | -0.558 ± 0.78
1 µM | -0.625 ± 0.92
3.16228 µM | -0.512 ± 0.7
10 µM | 0.394 ± 0.4
31.6228 µM | 0.786 ± 1.8
100 µM | 1.92 ± 1

CC(N)=O [Acetamide]
Details | LDH release cytotoxicity [%]
0.03162 µM | -1.42 ± 0.94
0.1 µM | -0.0289 ± 1.8
0.3162278 µM | -1.35 ± 0.33
1 µM | -2.5 ± 0.18
3.16228 µM | -2.19 ± 1.4
10 µM | -0.925 ± 0.15
31.6228 µM | -0.0914 ± 0.22
100 µM | 1.3 ± 0.62

CC(=O)Nc1ccc(O)cc1 [Acetaminophen]
Details | LDH release cytotoxicity [%]
0.03162 µM | -3.14 ± 0.072
0.1 µM | -3.633 ± 0.0048
0.3162278 µM | -2.81 ± 0.035
1 µM | -3.06 ± 0.61
3.16228 µM | -3.13 ± 0.24
10 µM | -3.2 ± 0.3
31.6228 µM | -2.512 ± 0.0032
100 µM | -1.82 ± 0.68

CC(=NC#N)N(C)Cc1ccc(Cl)nc1 [Acetamiprid]
Details | LDH release cytotoxicity [%]
0.03162 µM | -2.01 ± 1.8
0.1 µM | -2.67 ± 0.84
0.3162278 µM | -2.61 ± 0.31
1 µM | -2.64 ± 0.13
3.16228 µM | -2.01 ± 0.025
10 µM | -2.44 ± 1.2
31.6228 µM | -2.262 ± 0.022
100 µM | 0.254 ± 0.19
